Test results published in patent publication US20100099561A1, “HETEROBICYCLIC ALKYLTHIO-BRIDGED ISOXAZOLINES” (E.I. DU PONT DE NEMOURS AND COMPANY, priority 2008, published 2010).

Assays:
Format in all cases: in vivo
[1] = tested on: wheat (Triticum aestivum); test: Test A preemergence, wheat; conditions: 0 to 100 scale (0 no effect, 100 complete control)
How it was run: (§1)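 Visual injury scored 0 (no effect) to 100 (complete control) against untreated plants roughly ten days after greenhouse treatment. Postemergence sprays hit one- to two-leaf plants 2–10 cm high; preemergence was a directed spray onto loam–sand soil, both using surfactant-containing solvent formulations.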

[2] = tested on: velvetleaf (Abutilon theophrasti); test: Test A preemergence, velvetleaf; conditions: 0 to 100 scale (0 no effect, 100 complete control)
How it was run: as §1

[3] = tested on: goosegrass (Eleusine indica); test: Test B preemergence, goosegrass; conditions: scale 0 to 100
Text: (§2) Seeds of plant species selected from blackgrass (Alopecurus myosuroides), downy bromegrass (Bromus tectorum), green foxtail (Setaria viridis), Italian ryegrass (Lolium multiflorum), wheat (Triticum aestivum), wild oat (Avena fatua), catchweed bedstraw (Galium aparine), bermudagrass (Cynodon dactylon), Surinam grass (Brachiaria decumbens), cocklebur (Xanthium strumarium), corn (Zea mays), large crabgrass (Digitaria sanguinalis), woolly cupgrass (Eriochloa villosa), giant foxtail (Setaria faberii), goosegrass (Eleusine indica), johnsongrass (Sorghum halepense), kochia (Kochia scoparia), lambsquarters (Chenopodium album), morningglory (Ipomoea coccinea), nightshade (eastern black nightshade, Solanum ptycanthum), yellow nutsedge (Cyperus esculentus), pigweed (Amaranthus retroflexus), ragweed (common ragweed, Ambrosia elatior), soybean (Glycine max), sunflower (common oilseed sunflower, Helianthus annuus), Russian thistle (Salsola kali), and velvetleaf (Abutilon theophrasti) were planted into a blend of loam soil and sand and treated preemergence with test compounds formulated in a non-phytotoxic solvent mixture which included a surfactant. Treated plants and controls were maintained in a greenhouse for 13 to 15 days, after which time all species were compared to controls and visually evaluated. Plant response ratings, summarized in Table B, are based on a scale of 0 to 100 where 0 is no effect and 100 is complete control. A dash (-) response means no test result.

rice (Oryza sativa) = test: Test B flooded paddy test, rice; conditions: Flood, scale 0 to 100
How it was run: (§3)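 Compounds were added directly to paddy water over 2-leaf-stage plants in pots flooded 3 cm above soil, water depth maintained. Visual injury scored against controls after 13 to 15 days in greenhouse, 0 (none) to 100 (complete control); dash indicates no result.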

[4] = tested on: barnyardgrass (Echinochloa crus-galli); test: Test B flooded paddy test, barnyardgrass; conditions: Flood
How it was run: as §3

[5] = tested on: sunflower (common oilseed sunflower, Helianthus annuus); test: Test B preemergence, sunflower; conditions: Preemergence, scale 0 to 100
Text: as §2

[6] = tested on: lambsquarters (Chenopodium album); test: Test B preemergence, lambsquarters; conditions: scale 0 to 100
Text: as §2

[7] = tested on: pigweed (Amaranthus retroflexus); test: Test A preemergence, pigweed; conditions: 0 to 100 scale (0 no effect, 100 complete control)
How it was run: as §1

[8] = tested on: wheat (Triticum aestivum); test: Test B preemergence, wheat; conditions: Preemergence, scale 0 to 100
Text: as §2

[9] = tested on: blackgrass (Alopecurus myosuroides); test: Test B preemergence, blackgrass; conditions: scale 0 to 100
Text: as §2

[10] = tested on: pigweed (Amaranthus retroflexus); test: Test B preemergence, pigweed; conditions: scale 0 to 100
Text: as §2

corn (Zea mays) = test: Test A postemergence, corn; conditions: 0 to 100 scale (0 no effect, 100 complete control)
How it was run: as §1

[11] = tested on: cocklebur (Xanthium strumarium); test: Test B preemergence, cocklebur; conditions: scale 0 to 100
Text: as §2

[12] = tested on: large crabgrass (Digitaria sanguinalis); test: Test A postemergence, large crabgrass; conditions: 0 to 100 scale (0 no effect, 100 complete control)
How it was run: as §1

[13] = tested on: umbrella sedge (Cyperus difformis); test: Test B flooded paddy test, umbrella sedge; conditions: Flood, scale 0 to 100
How it was run: as §3

[14] = tested on: wheat (Triticum aestivum); test: Test A postemergence, wheat; conditions: 0 to 100 scale (0 no effect, 100 complete control)
How it was run: as §1

[15] = tested on: giant foxtail (Setaria faberii); test: Test B preemergence, giant foxtail; conditions: scale 0 to 100
Text: as §2

[16] = tested on: catchweed bedstraw (Galium aparine); test: Test B preemergence, catchweed bedstraw; conditions: scale 0 to 100
Text: as §2

[17] = tested on: nightshade (eastern black nightshade, Solanum ptycanthum); test: Test B preemergence, nightshade; conditions: scale 0 to 100
Text: as §2

SMILES: CC1(C)CC(S(=O)(=O)Cc2c(C(F)(F)F)nc3n(c2=O)CCC3)=NO1 [Compound 11, 3-[[(4,5-dihydro-5,5-dimethyl-3-isoxazolyl)sulfonyl]methyl]-7,8-dihydro-2-(trifluoromethyl)pyrrolo[1,2-α]pyrimidin-4(6H)-one]
- Plant response rating, Wheat ([1]; 125 g ai/ha): 0
- Plant response rating, Wheat ([1]; 500 g ai/ha): 60
- Plant response rating, Velvetleaf ([2]; 125 g ai/ha): 10
- Plant response rating, Velvetleaf ([2]; 500 g ai/ha): 60
- Plant response rating, Goosegrass ([3]; 16 g ai/ha): 65
- Plant response rating, Goosegrass ([3]; 31 g ai/ha): 90
- Plant response rating, Goosegrass ([3]; 62 g ai/ha): 100
- Plant response rating, Goosegrass ([3]; 125 g ai/ha): 100
- Plant response rating, Rice (rice (Oryza sativa); 31 g ai/ha): 0
- Plant response rating, Rice (rice (Oryza sativa); 62 g ai/ha): 0
- Plant response rating, Rice (rice (Oryza sativa); 125 g ai/ha): 25
- Plant response rating, Rice (rice (Oryza sativa); 250 g ai/ha): 25
- Plant response rating, Barnyardgrass ([4]; 31 g ai/ha, scale 0 to 100): 0
- Plant response rating, Barnyardgrass ([4]; 62 g ai/ha, scale 0 to 100): 0
- Plant response rating, Barnyardgrass ([4]; 125 g ai/ha, scale 0 to 100): 0
- Plant response rating, Barnyardgrass ([4]; 250 g ai/ha, scale 0 to 100 (0 no effect, 100 complete control)): 20
- Plant response rating, Sunflower ([5]; 16 g ai/ha): 0
- Plant response rating, Sunflower ([5]; 31 g ai/ha): 0
- Plant response rating, Sunflower ([5]; 62 g ai/ha): 0
- Plant response rating, Sunflower ([5]; 125 g ai/ha): 20
- Plant response rating, Lambsquarters ([6]; 16 g ai/ha): 0
- Plant response rating, Lambsquarters ([6]; 31 g ai/ha): 0
- Plant response rating, Lambsquarters ([6]; 62 g ai/ha): 0
- Plant response rating, Lambsquarters ([6]; 125 g ai/ha): 100
- Plant response rating, Pigweed ([7]; 125 g ai/ha): 30
- Plant response rating, Pigweed ([7]; 500 g ai/ha): 100
- Plant response rating, Wheat ([8]; 16 g ai/ha): 0
- Plant response rating, Wheat ([8]; 31 g ai/ha): 0
- Plant response rating, Wheat ([8]; 62 g ai/ha): 20
- Plant response rating, Wheat ([8]; 125 g ai/ha): 50
- Plant response rating, Blackgrass ([9]; 16 g ai/ha): 0
- Plant response rating, Blackgrass ([9]; 31 g ai/ha): 70
- Plant response rating, Blackgrass ([9]; 62 g ai/ha): 70
- Plant response rating, Blackgrass ([9]; 125 g ai/ha): 100
- Plant response rating, Pigweed ([10]; 16 g ai/ha): 0
- Plant response rating, Pigweed ([10]; 31 g ai/ha): 0
- Plant response rating, Pigweed ([10]; 62 g ai/ha): 100
- Plant response rating, Pigweed ([10]; 125 g ai/ha): 100
- Plant response rating, Corn (corn (Zea mays); 125 g ai/ha): 20
- Plant response rating, Corn (corn (Zea mays); 500 g ai/ha): 50
- Plant response rating, Cocklebur ([11]; 16 g ai/ha): 0
- Plant response rating, Cocklebur ([11]; 31 g ai/ha): 0
- Plant response rating, Cocklebur ([11]; 62 g ai/ha): 0
- Plant response rating, Cocklebur ([11]; 125 g ai/ha): 0
- Plant response rating, Crabgrass, Large ([12]; 125 g ai/ha): 80
- Plant response rating, Crabgrass, Large ([12]; 500 g ai/ha): 90
- Plant response rating, Sedge, Umbrella ([13]; 31 g ai/ha): 0
- Plant response rating, Sedge, Umbrella ([13]; 62 g ai/ha): 0
- Plant response rating, Sedge, Umbrella ([13]; 125 g ai/ha): 0
- Plant response rating, Sedge, Umbrella ([13]; 250 g ai/ha): 20
- Plant response rating, Wheat ([14]; 125 g ai/ha): 20
- Plant response rating, Wheat ([14]; 500 g ai/ha): 60
- Plant response rating, Foxtail, Giant ([15]; 16 g ai/ha): 0
- Plant response rating, Foxtail, Giant ([15]; 31 g ai/ha): 40
- Plant response rating, Foxtail, Giant ([15]; 62 g ai/ha): 95
- Plant response rating, Foxtail, Giant ([15]; 125 g ai/ha): 100
- Plant response rating, Galium ([16]; 16 g ai/ha): 0
- Plant response rating, Galium ([16]; 31 g ai/ha): 0
- Plant response rating, Galium ([16]; 62 g ai/ha): 95
- Plant response rating, Galium ([16]; 125 g ai/ha): 98
- Plant response rating, Nightshade ([17]; 16 g ai/ha): 0
- Plant response rating, Nightshade ([17]; 31 g ai/ha): 60
- Plant response rating, Nightshade ([17]; 62 g ai/ha): 95
- Plant response rating, Nightshade ([17]; 125 g ai/ha): 98
